Reference: patent US6727264B1 (Synaptic Pharmaceutical Corporation, priority 2001, dated 2004)

Biological target: rat MCH-1 (Rattus norvegicus, UniProt P97639)
Experiment: Radioligand binding assay at cloned rat MCH1 receptor ([3H] Compound A)
Design: host or cells: Peak rapid 293 (Peakr293) cells, transient calcium phosphate transfection, membranes
Conditions: cloned rat MCH1 receptor; 0.08 nM [3H] Compound A; Peakr293 cell membranes; read-out: Ki (nM) rMCH1

Sequence of rat MCH-1 (P97639 whole entry): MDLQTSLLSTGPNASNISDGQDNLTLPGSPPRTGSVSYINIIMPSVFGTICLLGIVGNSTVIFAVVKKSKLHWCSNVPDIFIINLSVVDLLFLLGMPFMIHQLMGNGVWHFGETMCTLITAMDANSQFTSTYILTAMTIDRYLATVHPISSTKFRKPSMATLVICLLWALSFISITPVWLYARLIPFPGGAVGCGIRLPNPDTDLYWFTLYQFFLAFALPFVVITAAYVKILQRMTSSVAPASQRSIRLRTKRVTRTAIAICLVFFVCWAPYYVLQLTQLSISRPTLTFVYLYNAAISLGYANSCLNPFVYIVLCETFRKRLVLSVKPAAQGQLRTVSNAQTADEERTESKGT

| Ki [nM] | SMILES |
| --- | --- |
| 167 | CC(C)C(=O)Nc1cccc(C2CCN(Cc3cccc4c3ccn4-c3ccccn3)CC2)c1 [Example 870] |
| 252 | CC(C)C(=O)Nc1cccc(C2CCN(Cc3cccc4c3ccn4-c3ccccc3F)CC2)c1 [Example 871] |
| 306 | CC(C)C(=O)Nc1cccc(C2CCN(Cc3cccc4c3ccn4-c3ccc(Cl)cc3)CC2)c1 [Example 872] |
| 345 | CC(C)C(=O)Nc1cccc(C2CCN(Cc3cccc4c3ccn4-c3cccnc3)CC2)c1 [Example 873] |
| 247 | Cc1cccc(-n2ccc3c(CN4CCC(c5cccc(NC(=O)C(C)C)c5)CC4)cccc32)c1C [Example 874] |
| 130 | CC(C)C(=O)Nc1cccc(C2CCN(Cc3cccc4c3ccn4-c3cccc(F)c3)CC2)c1 [Example 875] |
| 758 | CC(C)C(=O)Nc1cccc(C2CCN(Cc3cccc4c3ccn4-c3ccccc3C(F)(F)F)CC2)c1 [Example 876] |
| 245 | CC(C)C(=O)Nc1cccc(C2CCN(Cc3cccc4c3ccn4-c3ccccc3Cl)CC2)c1 [Example 877] |
| 169 | Cc1cccc(-n2ccc3cccc(CN4CCC(c5cccc(NC(=O)C(C)C)c5)CC4)c32)c1C [Example 878] |
| 19.8 | CC(=O)c1cccc(OC(CCCCCN2CCC(c3cccc(NC(=O)C(C)C)c3)CC2)c2ccccc2F)c1 (stereo not shown) [Example 888] |
| 8.6 | CC(C)C(=O)Nc1cccc(C2CCN(CCCCCC(Oc3ccccc3F)c3ccccc3F)CC2)c1 (stereo not shown) [Example 889] |
| 11.1 | CC(C)C(=O)Nc1cccc(C2CCN(CCCCCC(Oc3ccc(F)cc3)c3ccccc3F)CC2)c1 (stereo not shown) [Example 890] |
| 6.5 | COc1ccccc1OC(CCCCCN1CCC(c2cccc(NC(=O)C(C)C)c2)CC1)c1ccccc1F (stereo not shown) [Example 891] |
| 17.3 | COc1ccc(OC(CCCCCN2CCC(c3cccc(NC(=O)C(C)C)c3)CC2)c2ccccc2F)cc1 (stereo not shown) [Example 892] |
| 23 | CC(=O)c1ccc(OC(CCCCCN2CCC(c3cccc(NC(=O)C(C)C)c3)CC2)c2ccccc2F)cc1 (stereo not shown) [Example 893] |
| 41.7 | COc1ccc(OC(CCCCCN2CCC(c3cccc(NC(=O)C(C)C)c3)CC2)c2ccccc2F)cc1OC (stereo not shown) [Example 894] |
| 6.4 | CCOc1ccccc1OC(CCCCCN1CCC(c2cccc(NC(=O)C(C)C)c2)CC1)c1ccccc1F (stereo not shown) [Example 895] |
| 30.3 | CC(C)C(=O)Nc1cccc(C2CCN(CCCCCC(Oc3ccc(Br)cc3)c3ccccc3)CC2)c1 (stereo not shown) [Example 896] |
| 6.4 | CC(C)C(=O)Nc1cccc(C2CCN(CCCCCC(Oc3ccc(F)cc3)c3ccc(F)cc3)CC2)c1 (stereo not shown) [Example 897] |
| 33.7 | COc1ccc(OC(CCCCCN2CCC(c3cccc(NC(=O)C(C)C)c3)CC2)c2ccccc2)cc1 (stereo not shown) [Example 898] |
| 18 | CC(C)C(=O)Nc1cccc(C2CCN(CCCCCC(Oc3ccc(Cl)cc3)c3ccc(Cl)cc3)CC2)c1 (stereo not shown) [Example 899] |
| 11.2 | CC(C)C(=O)Nc1cccc(C2CCN(CCCCCC(Oc3ccc(Br)cc3)c3ccc(F)cc3)CC2)c1 (stereo not shown) [Example 900] |
| 8.2 | CC(C)C(=O)Nc1cccc(C2CCN(CCCCCC(Oc3ccc(Cl)cc3)c3ccc(F)cc3)CC2)c1 (stereo not shown) [Example 901] |
| 11 | CC(C)C(=O)Nc1cccc(C2CCN(CCCCCC(Oc3ccc(F)cc3)c3ccc(Cl)cc3)CC2)c1 (stereo not shown) [Example 902] |

| Ki [nM] | SMILES |
| --- | --- |
| 12.2 | CC(=O)c1cccc(OC(CCCCCN2CCC(c3cccc(NC(=O)C(C)C)c3)CC2)c2ccccc2)c1 (stereo not shown) [Example 903] |
| 14.2 | CC(C)C(=O)Nc1cccc(C2CCN(CCCCCC(Oc3ccc(Cl)cc3)c3ccccc3)CC2)c1 (stereo not shown) [Example 904] |
| 5.9 | CC(C)C(=O)Nc1cccc(C2CCN(CCCCCC(Oc3ccc(Br)cc3)c3ccc(Cl)cc3)CC2)c1 (stereo not shown) [Example 905] |
| 5.7 | COc1ccc(OC(CCCCCN2CCC(c3cccc(NC(=O)C(C)C)c3)CC2)c2ccc(Cl)cc2)cc1 (stereo not shown) [Example 906] |
| 3.1 | COc1ccc(OC(CCCCCN2CCC(c3cccc(NC(=O)C(C)C)c3)CC2)c2ccc(F)cc2)cc1 (stereo not shown) [Example 907] |
| 3.7 | CC(=O)c1cccc(OC(CCCCCN2CCC(c3cccc(NC(=O)C(C)C)c3)CC2)c2ccc(F)cc2)c1 (stereo not shown) [Example 908] |
| 10 | CC(C)C(=O)Nc1cccc(C2CCN(CCCCCC(Oc3ccc(F)cc3)c3ccccc3)CC2)c1 (stereo not shown) [Example 909] |
| 10.1 | CC(=O)c1ccccc1OC(CCCCCN1CCC(c2cccc(NC(=O)C(C)C)c2)CC1)c1ccccc1F (stereo not shown) [Example 910] |
| 7.6 | CC(C)C(=O)Nc1cccc(C2CCN(CCCCCC(Oc3cc(C(F)(F)F)ccc3F)c3ccc(F)cc3)CC2)c1 (stereo not shown) [Example 911] |
| 5.7 | CC(=O)c1cccc(OC(CCCCCN2CCC(c3cccc(NC(=O)C(C)C)c3)CC2)c2ccc(Cl)cc2)c1 (stereo not shown) [Example 912] |
| 12.9 | CC(C)C(=O)Nc1cccc(C2CCN(CCCCCC(Oc3cc(C(F)(F)F)ccc3F)c3ccccc3F)CC2)c1 (stereo not shown) [Example 913] |
| 17.3 | CC(C)C(=O)Nc1cccc(C2CCN(CCCCCC(Oc3cc(C(F)(F)F)ccc3F)c3ccc(Cl)cc3)CC2)c1 (stereo not shown) [Example 914] |
| 22.6 | CC(C)C(=O)Nc1cccc(C2CCN(CCCCCC(Oc3cc(C(F)(F)F)ccc3F)c3cccc(F)c3)CC2)c1 (stereo not shown) [Example 915] |
| 20.2 | CC(C)C(=O)Nc1cccc(C2CCN(CCCCCC(Oc3cc(C(F)(F)F)ccc3F)c3ccccc3)CC2)c1 (stereo not shown) [Example 916] |
| 78 | CC(C)C(=O)Nc1cccc(C2CCN(CCCCCCC(Oc3cc(C(F)(F)F)ccc3F)c3ccccc3F)CC2)c1 (stereo not shown) [Example 917] |
| 29.3 | COc1ccc(OC(CCCCN2CCC(c3cccc(NC(=O)C(C)C)c3)CC2)c2ccc(F)cc2)cc1 (stereo not shown) [Example 918] |
| 14 | CC(C)C(=O)Nc1cccc(C2CCN(CCCCC(Oc3ccc(Br)cc3)c3ccc(F)cc3)CC2)c1 (stereo not shown) [Example 919] |
| 6.9 | CC(C)C(=O)Nc1cccc(C2CCN(CCCCC(Oc3ccc(Cl)cc3)c3ccc(Cl)cc3)CC2)c1 (stereo not shown) [Example 920] |
| 6.8 | CC(C)C(=O)Nc1cccc(C2CCN(CCCCC(Oc3ccc(Cl)cc3)c3ccccc3)CC2)c1 (stereo not shown) [Example 921] |
| 25 | CC(=O)c1cccc(OC(CCCCN2CCC(c3cccc(NC(=O)C(C)C)c3)CC2)c2ccc(F)cc2)c1 (stereo not shown) [Example 922] |
| 1.3 | CC(C)C(=O)Nc1cccc(C2CCN(CCCCC(Oc3ccc(F)cc3)c3ccc(Cl)cc3)CC2)c1 (stereo not shown) [Example 923] |
| 13.1 | CC(C)C(=O)Nc1cccc(C2CCN(CCCCC(Oc3ccc(Br)cc3)c3ccccc3)CC2)c1 (stereo not shown) [Example 924] |
| 13.4 | COc1ccc(OC(CCCCN2CCC(c3cccc(NC(=O)C(C)C)c3)CC2)c2ccc(Cl)cc2)cc1 (stereo not shown) [Example 925] |
| 1.4 | CC(C)C(=O)Nc1cccc(C2CCN(CCCCC(Oc3ccc(F)cc3)c3ccc(F)cc3)CC2)c1 (stereo not shown) [Example 926] |

| Ki [nM] | SMILES |
| --- | --- |
| 60.7 | CC(=O)c1cccc(OC(CCCCN2CCC(c3cccc(NC(=O)C(C)C)c3)CC2)c2ccccc2)c1 (stereo not shown) [Example 927] |
| 14.9 | COc1ccc(OC(CCCCN2CCC(c3cccc(NC(=O)C(C)C)c3)CC2)c2ccccc2)cc1 (stereo not shown) [Example 928] |
| 29.9 | CC(C)C(=O)Nc1cccc(C2CCN(CCCCC(Oc3cc(C(F)(F)F)ccc3F)c3ccc(C(F)(F)F)cc3)CC2)c1 (stereo not shown) [Example 929] |
| 14.6 | CC(C)C(=O)Nc1cccc(C2CCN(CCCCC(Oc3cc(C(F)(F)F)ccc3F)c3cccc(Cl)c3)CC2)c1 (stereo not shown) [Example 930] |
| 9.6 | CC(C)C(=O)Nc1cccc(C2CCN(CCCCC(Oc3cc(C(F)(F)F)ccc3F)c3ccccc3F)CC2)c1 (stereo not shown) [Example 931] |
| 9.4 | CC(C)C(=O)Nc1cccc(C2CCN(CCCCC(Oc3cc(C(F)(F)F)ccc3F)c3cccc(F)c3)CC2)c1 (stereo not shown) [Example 932] |
| 10.9 | CC(=O)c1cccc(OC(CCCCN2CCC(c3cccc(NC(=O)C(C)C)c3)CC2)c2ccc(Cl)cc2)c1 (stereo not shown) [Example 933] |
| 12.3 | CC(C)C(=O)Nc1cccc(C2CCN(CCCCC(Oc3cc(C(F)(F)F)ccc3F)c3ccc(Cl)cc3)CC2)c1 (stereo not shown) [Example 934] |
| 19.7 | CC(C)C(=O)Nc1cccc(C2CCN(CCCCC(Oc3cc(C(F)(F)F)ccc3F)c3ccc(F)cc3)CC2)c1 (stereo not shown) [Example 935] |
| 11.6 | CC(C)C(=O)Nc1cccc(C2CCN(CCCCC(Oc3ccc(Br)cc3)c3ccc(Cl)cc3)CC2)c1 (stereo not shown) [Example 936] |
| 28.4 | CC(C)C(=O)Nc1cccc(C2CCN(CCCCC(Oc3ccc(Cl)cc3)c3ccc(F)cc3)CC2)c1 (stereo not shown) [Example 937] |
| 609 | CC(=O)c1ccccc1OC(CCCCN1CCC(c2cccc(NC(=O)C(C)C)c2)CC1)c1ccccc1 (stereo not shown) [Example 938] |
| 62 | CCOc1ccccc1OC(CCCCN1CCC(c2cccc(NC(=O)C(C)C)c2)CC1)c1ccccc1 (stereo not shown) [Example 939] |
| 1.8 | CC(C)C(=O)Nc1cccc(C2CCN(CCCCC(Oc3ccc(F)cc3)c3ccccc3)CC2)c1 (stereo not shown) [Example 940] |
| 15.2 | CC(C)C(=O)Nc1cccc(C2CCN(CCCC(=O)c3ccc(F)cc3)CC2)c1 [Example 941] |
| 188 | CC(C)C(=O)Nc1cccc(C2CCN(CCCc3cc[nH]c3)CC2)c1 [Example 942] |
| 102 | CC(C)C(=O)Nc1cccc(C2CCN(CCCC(=O)c3ccc(C(C)C)cc3)CC2)c1 [Example 943] |
| 38.8 | COc1ccc(C(=O)CCCN2CCC(c3cccc(NC(=O)C(C)C)c3)CC2)cc1 [Example 944] |
| 31.2 | Cc1ccc(C(=O)CCCN2CCC(c3cccc(NC(=O)C(C)C)c3)CC2)cc1 [Example 945] |
| 337 | CC(C)C(=O)Nc1cccc(C2CCN(CCCC(=O)c3ccc(C(C)(C)C)cc3)CC2)c1 [Example 946] |
| 4.3 | CC(C)C(=O)Nc1cccc(C2CCN(CCCC(=O)c3ccc(Br)cc3)CC2)c1 [Example 947] |
| 21.2 | CC(C)C(=O)Nc1cccc(C2CCN(CCCC(=O)c3cccs3)CC2)c1 [Example 948] |
